The target of test [1] is T1, Human adrenergic α2B receptor (Homo sapiens, UniProt P18089).
T1 sequence (P18089 1-450): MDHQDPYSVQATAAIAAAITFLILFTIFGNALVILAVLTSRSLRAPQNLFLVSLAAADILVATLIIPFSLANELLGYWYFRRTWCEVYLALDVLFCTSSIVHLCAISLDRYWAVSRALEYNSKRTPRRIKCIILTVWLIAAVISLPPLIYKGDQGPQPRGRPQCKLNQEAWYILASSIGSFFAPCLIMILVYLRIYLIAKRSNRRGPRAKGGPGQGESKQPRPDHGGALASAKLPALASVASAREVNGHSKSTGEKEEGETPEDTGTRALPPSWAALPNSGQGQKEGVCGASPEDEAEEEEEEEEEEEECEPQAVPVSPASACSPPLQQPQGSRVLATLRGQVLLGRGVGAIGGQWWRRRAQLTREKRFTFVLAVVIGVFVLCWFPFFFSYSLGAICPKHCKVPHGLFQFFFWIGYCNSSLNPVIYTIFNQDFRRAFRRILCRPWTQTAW
The experiment in a line: Radioligand binding, adrenergic α2B (Protocol Group B). More on the design: purchased Milipore (Millipore). The following applies: Protocol Group B; for inhibition at 0.01 µM / Percentage inhibition of ligand binding, Adrenergic α2B (10 nM): 10 nM compound; for inhibition at 0.01 µM: read-out: Percentage inhibition of ligand binding, Adrenergic α2B (10 nM); for inhibition at 0.03 µM / Percentage inhibition of ligand binding, Adrenergic α2B (30 nM): 30 nM compound; for inhibition at 0.03 µM: read-out: Percentage inhibition of ligand binding, Adrenergic α2B (30 nM); for Ki: estimated Ki, read-out: Ki α2B; for inhibition at 0.1 µM: read-out: Percentage inhibition of ligand binding, Adrenergic α2B (0.1 μM); for Percentage inhibition of ligand binding, Adrenergic α2B (10 nM): 0.01 µM. In outline: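 Recombinant human α2B receptor membranes incubated with compounds in 50 mM Tris-HCl pH 7.4, 5 mM MgCl2, 1 mM CaCl2, 0.2% BSA, 1% DMSO vehicle. Non-specific binding defined with 10 μM rauwolscine. Values are percent inhibition of specific binding or estimated Ki.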

Test [2] concerns the target T2, Human adrenergic α2A receptor (Homo sapiens, UniProt P08913).
T2 sequence (P08913 1-465): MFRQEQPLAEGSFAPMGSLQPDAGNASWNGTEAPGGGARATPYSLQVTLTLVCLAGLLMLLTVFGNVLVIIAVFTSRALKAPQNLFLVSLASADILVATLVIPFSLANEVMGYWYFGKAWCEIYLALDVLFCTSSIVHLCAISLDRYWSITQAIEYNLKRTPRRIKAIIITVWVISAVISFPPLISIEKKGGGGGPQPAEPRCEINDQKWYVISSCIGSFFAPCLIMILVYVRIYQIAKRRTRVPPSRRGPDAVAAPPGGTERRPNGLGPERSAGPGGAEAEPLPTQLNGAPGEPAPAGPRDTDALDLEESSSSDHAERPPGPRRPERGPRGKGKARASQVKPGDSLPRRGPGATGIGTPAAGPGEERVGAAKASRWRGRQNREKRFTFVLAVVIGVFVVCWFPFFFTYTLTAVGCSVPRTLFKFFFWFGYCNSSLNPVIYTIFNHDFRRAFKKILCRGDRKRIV
The experiment in a line: Radioligand binding, adrenergic α2A (Protocol Group B). Set-up: purchased Milipore (Millipore). The following applies: Protocol Group B; for inhibition at 0.1 µM / Percentage inhibition of ligand binding, Adrenergic α2A (0.1 μM): 0.1 μM compound; for inhibition at 0.1 µM: read-out: Percentage inhibition of ligand binding, Adrenergic α2A (0.1 μM); for inhibition at 0.3 µM / Percentage inhibition of ligand binding, Adrenergic α2A (0.3 μM): 0.3 μM compound; for inhibition at 0.3 µM: read-out: Percentage inhibition of ligand binding, Adrenergic α2A (0.3 μM); for Ki: estimated Ki. In outline:
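Membranes from recombinant cells expressing the receptor, in 50 mM Tris-HCl pH 7.4 with 5 mM MgCl2, 1 mM CaCl2, 0.2% BSA; compounds incubated with 2 nM [^3H]MK-912 for 60 min at 25° C. Nonspecific binding defined by 10 μM rauwolscine; filtration, counting; percent inhibition of specific binding, or estimated Ki.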

Test [3] addresses T1, Human adrenergic α2B receptor. The experiment in a line: β-Arrestin GPCR functional assay, adrenergic α2B (Protocol B). The format is cell-based. The following applies: β-arrestin, antagonist vs nor-epinephrine EC80; read-out: IC50 Adrenergic α2B. As to the method:
To evaluate the activity of compounds in β-Arrestin GPCR functional assays, recombinant CHO cell line (DiscoveRX), over expressed with human adrenergic α2B receptor were used. The experiment was done with kit of DiscoveRX as per recommended protocol of the supplier. Cells were harvested from culture flask using cell dissociation solution (CDS) and plated at a density of 12,000 cells/well in CP reagent (supplied with the kit) in a half area 96-well white polystyrene plate. After 24 h incubation at 37° C., compounds at various concentrations in 1% (final) DMSO were charged to the cells for 30 min at 37° C. Active nor-epinephrine (-NE) at its EC80 concentrations (50 nM) were then added to the cells and incubated for another 90 min at 37° C. Detection mix was prepared by mixing of Path Hunter cell assay buffer, Emerald II solution and Galactone star solution in a ratio of 19:5:1 and incubated with the cells for 60 min at RT in the dark. The reading was taken in Envision at luminescence mode. Biochemical assay results are presented as the percent Inhibition in Table B2a, or IC50 values in Table B2b.

Test [4] deals with T3, Human adrenergic α1B receptor (Homo sapiens, UniProt P35368).
T3 sequence (P35368 1-520): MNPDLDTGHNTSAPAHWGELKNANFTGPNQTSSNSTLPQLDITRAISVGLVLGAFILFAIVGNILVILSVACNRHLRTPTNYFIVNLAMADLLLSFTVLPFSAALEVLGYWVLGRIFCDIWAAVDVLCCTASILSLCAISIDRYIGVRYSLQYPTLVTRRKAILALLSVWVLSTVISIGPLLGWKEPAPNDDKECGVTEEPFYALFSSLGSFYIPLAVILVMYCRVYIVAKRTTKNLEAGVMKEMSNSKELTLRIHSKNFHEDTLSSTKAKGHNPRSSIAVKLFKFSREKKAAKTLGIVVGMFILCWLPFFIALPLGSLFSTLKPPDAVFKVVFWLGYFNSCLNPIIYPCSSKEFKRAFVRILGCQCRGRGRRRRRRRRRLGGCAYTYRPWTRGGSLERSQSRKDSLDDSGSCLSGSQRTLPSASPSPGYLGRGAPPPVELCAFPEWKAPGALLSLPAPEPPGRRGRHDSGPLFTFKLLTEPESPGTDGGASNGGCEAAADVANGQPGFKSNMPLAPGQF
The experiment in a line: Radioligand binding, adrenergic α1B (Protocol Group B). The following applies: Protocol Group B; for inhibition at 0.1 µM / Percentage inhibition of ligand binding, Adrenergic α1B (0.1 μM): 0.1 μM compound; for inhibition at 0.1 µM: read-out: Percentage inhibition of ligand binding, Adrenergic α1B (0.1 μM); for inhibition at 0.3 µM / Percentage inhibition of ligand binding, Adrenergic α1B (0.3 μM): 0.3 μM compound; for inhibition at 0.3 µM: read-out: Percentage inhibition of ligand binding, Adrenergic α1B (0.3 μM); for Ki: estimated Ki. Set-up: purchased Milipore (Millipore). In outline:
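Recombinant human α1B membranes incubated with test compound and 0.3 nM [3H]prazosin, 60 min at 25 °C, in 50 mM Tris-HCl pH 7.4, 10 mM MgCl2, 1 mM EDTA; nonspecific binding with 10 μM prazosin. Filter-bound radioactivity counted; values are % inhibition of specific binding or estimated Ki.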

As usually defined, the inhibition is the relative decrease from the control value, in per cent. As usually defined, the Ki is a measure of affinity in units of concentration, obtained from inhibition or displacement. Broadly, the IC50 is the midpoint of a concentration-inhibition curve. As to `Cc1ccc2c(c1)c1c(n2CC(C)(O)c2cnc3ccccc3c2)CCN(C)C1` (single isomer, unassigned) [32a], in test [1], the inhibition at 0.01 µM turned out to be 28%, the inhibition at 0.03 µM amounted to 54% and the Ki is 7.9 nM. In test [2], the inhibition at 0.1 µM amounted to 10% and the inhibition at 0.3 µM turned out to be 37%. In test [3], the half-maximal inhibitory concentration (IC50) worked out at 396 nM. Moreover, in test [4], the inhibition at 0.1 µM is -1% and the inhibition at 0.3 µM was determined as 26%.
On to `Cc1ccc2c(c1)c1c(n2CC(O)c2ccncc2)CNC2CCCC12` (single isomer, unassigned) [34c], for which, in test [1], the inhibition at 0.01 µM was found to be 52%, the inhibition at 0.03 µM was 80% and the Ki was 4.6 nM. Further, the inhibition at 0.1 µM in test [1] (0.1 μM compound) stood at 90%. In addition, in test [2], the inhibition at 0.1 µM was determined as 4%, the inhibition at 0.3 µM amounted to 11% and the Ki is 5160 nM. For the same molecule, the IC50 in test [3] amounted to 251 nM. In test [4], the inhibition at 0.1 µM turned out to be 3%, the inhibition at 0.3 µM turned out to be 28% and the Ki is 379 nM.
In the case of `Cc1ccc2c(c1)c1c(n2CC(OC2CCCC2)c2ccncc2)CCN(C)C1` (single isomer, unassigned) [35b], in test [1], the “Percentage inhibition of ligand binding, Adrenergic α2B (10 nM)” value came to 65%; the “Percentage inhibition of ligand binding, Adrenergic α2B (30 nM)” value stood at 86%; the Ki is 3.49 nM. In test [1] (0.1 μM compound), the “Percentage inhibition of ligand binding, Adrenergic α2B (0.1 μM)” value came out at 96%. Further, in test [2], the “Percentage inhibition of ligand binding, Adrenergic α2A (0.1 μM)” value is recorded as 25%; the “Percentage inhibition of ligand binding, Adrenergic α2A (0.3 μM)” value was 45%; the Ki was 241 nM. Further, the IC50 in test [3] was 212 nM. Also, in test [4], the “Percentage inhibition of ligand binding, Adrenergic α1B (0.1 μM)” value is reported as 5%; the “Percentage inhibition of ligand binding, Adrenergic α1B (0.3 μM)” value was found to be 17%; the inhibitory constant (Ki) was 456 nM.
As for `Cc1ccc2c(c1)c1c(n2CC(C)(O)c2cccnc2)CC2CCCN2C1` (single isomer, unassigned) [38b], in test [1], the inhibition at 0.01 µM was 38%, the inhibition at 0.03 µM worked out at 72% and the inhibitory constant (Ki) is 7.16 nM. Also, the inhibition at 0.1 µM in test [1] (0.1 μM compound) came out at 90%. In test [2], the “Percentage inhibition of ligand binding, Adrenergic α2A (0.1 μM)” value was determined as 16%; the inhibition at 0.3 µM was 42%; the Ki is 291 nM. In addition, in test [3], the IC50 was found to be 237 nM. In addition, in test [4], the “Percentage inhibition of ligand binding, Adrenergic α1B (0.1 μM)” value came to 15%; the inhibition at 0.3 µM stood at 33%; the Ki was 179 nM.
For `Cc1cc(F)c2c(c1)c1c(n2CC(C)(O)c2cccnc2)CC2CCCN2C1` (single isomer, unassigned) [61c], in test [1], the inhibition at 0.01 µM worked out at 51%, the inhibition at 0.03 µM was 77% and the Ki is 5.4 nM. Also, the inhibition at 0.1 µM in test [1] (0.1 μM compound) was 92%. Further, in test [2], the inhibition at 0.1 µM was found to be 2% and the inhibition at 0.3 µM came out at 41%. Besides, the concentration for half-maximal inhibition (IC50) in test [3] is 313 nM. Moreover, in test [4], the inhibition at 0.1 µM came out at 4% and the inhibition at 0.3 µM was determined as 15%.
Consider `CC(O)(Cn1c2c(c3cc(Cl)cc(F)c31)CN1CCCC1C2)c1cccnc1` (single isomer, unassigned) [63c], for which, in test [1], the inhibition at 0.01 µM is 42%, the inhibition at 0.03 µM came to 71% and the Ki is 12.4 nM. In test [2], the inhibition at 0.1 µM turned out to be 8% and the inhibition at 0.3 µM is 36%. For the same molecule, the IC50 in test [3] came to 692 nM. In addition, in test [4], the inhibition at 0.1 µM came to 8% and the inhibition at 0.3 µM stood at 14%.
Regarding `Cc1cc(F)cc2c3c(n(CC(C)(O)c4cccnc4)c12)CCN1CCCC31` (single isomer, unassigned) [75d], in test [1], the “Percentage inhibition of ligand binding, Adrenergic α2B (10 nM)” value turned out to be 55% and the Ki is 8.65 nM. Moreover, the “Percentage inhibition of ligand binding, Adrenergic α2B (30 nM)” value in test [1] (0.03 µM) amounted to 79%. In test [2], the “Percentage inhibition of ligand binding, Adrenergic α2A (0.1 μM)” value is 25% and the “Percentage inhibition of ligand binding, Adrenergic α2A (0.3 μM)” value is on record as 41%. The IC50 in test [3] came to 381 nM. In addition, in test [4], the “Percentage inhibition of ligand binding, Adrenergic α1B (0.1 μM)” value stood at 15% and the “Percentage inhibition of ligand binding, Adrenergic α1B (0.3 μM)” value is 33%.
Take `Cc1ccc2c(c1)c1c(n2CC(C)(O)c2cccnc2)CCN(CC(F)F)C1` (stereo not shown) [compound 58, 1-(2-(2,2-difluoroethyl)-8-methyl-3,4-dihydro-1H-pyrido[4,3-b]indol-5(2H)-yl)-2-(pyridin-3-yl)propan-2-ol]: in test [1], the inhibition at 0.01 µM was -10% and the inhibition at 0.03 µM was -4%. In test [1] (0.1 μM compound), the inhibition at 0.1 µM is -2%. For the same molecule, in test [2], the inhibition at 0.1 µM was -6% and the inhibition at 0.3 µM is -1%. For the same molecule, in test [4], the inhibition at 0.1 µM is -6% and the inhibition at 0.3 µM is -4%.
Take `Cc1ccc2c(c1)c1c(n2CC(O)c2ccc(C(=O)N3CCCC3)nc2)CCN(C)C1` (stereo not shown) [compound 96, [5-[2-(2,8-dimethyl-3,4-dihydro-1H-pyrido[4,3-b]indol-5-yl)-1-hydroxy-ethyl]-2-pyridyl]-pyrrolidin-1-yl-methanone]: in test [1], the inhibition at 0.01 µM is 1% and the inhibition at 0.03 µM is 21%. In addition, in test [2], the inhibition at 0.1 µM is -7% and the inhibition at 0.3 µM was -9%. In test [4], the inhibition at 0.1 µM was -1% and the inhibition at 0.3 µM came to 9%.

The values are drawn from patent US20150315188A1, “COMPOUNDS AND METHODS FOR TREATMENT OF HYPERTENSION” (MEDIVATION TECHNOLOGIES, INC., priority 2012, published 2015).
